Measured values: patent US20240209353A1, “NADK2 INHIBITION IN CANCER AND FIBROTIC DISORDERS” (Memorial Sloan-Kettering Cancer Center, priority 2021, published 2024)
Where “and” joins values, the source holds several entries; their conditions need not be identical. Equal values may be shown once.

Tested on: DLD1-OMP25HA cells
Experiment: LC-MS metabolomic profiling, whole cell samples
Type: cell-based, human
Conditions: DLD1-OMP25HA sgCtrl + Piericidin 5 μM 2 hours, rep01-rep03
Description: Rapid immunopurification of mitochondria was performed following the published methodology (4). In brief, cells with control or NADK2 knockout were engineered to express the HA-tagged OMP25 protein (Addgene, 83356); or in the case of FIG. 5E, parental DLD1 cells were engineered to express the HA-tagged OMP25 protein or the Myc-tagged OMP25 protein (Addgene, 83355), 30 million cells were washed and dounce homogenized in KPBS (136 mM KCl and 10 mM KH2PO4, pH 7.25). The homogenate was then cleared by centrifugation and the supernatant was applied to anti-HA beads (Thermo Fisher, 88837) and incubated with rotation for 3.5 min. The resultant beads were washed with KPBS and were eluted for different downstream analyses: Triton X-100 lysis buffer (50 mM Tris-HCl, pH 7.4, 150 mM NaCl, 1 mM EDTA, 1% (vol/vol) Triton X-100, and protease inhibitors) was used to elute mitochondria for Western blot analysis; 80:20 methanol:water containing 1.5 μM ^13C^15N labeled amino acids (Cambridge Isotope Laboratories, MSK-A2-1.2) was used to elute mitochondria for liquid chromatography-mass spectrometry (LC-MS) analysis; 80:20 methanol:water was used to elute mitochondria for NAD(H) and NADP(H) measurements; glutathione lysis buffer (see below) was used to elute mitochondria for GSH measurements.
For negative ionization mode liquid chromatography separation was achieved on an iHILIC-(P) Classic column (100 mm×2.1 mm, 5 μm particle size, HILICON). Mobile phase A was 10 mM ammonium bicarbonate in 10:90 acetonitrile:water with 5 μM medronic acid, pH 9.4 and mobile phase B was 10 mM ammonium bicarbonate in 90:10 acetonitrile:water with 5 μM medronic acid, pH 9.4). The gradient was 0 min, 95% B; 15 min, 50% B; 18 min, 50% B; 19 min, 95% B; 19.10 min, 95% B; 25.5 min, 95% B; 2 mins posttime. Other LC parameters were: flow rate: 200 μL/min; column temperature: 40° C., and injection volume was 2 μL. MS parameters were: gas temp: 300° C.; gas flow: 10 L/min; nebulizer pressure: 40 psig; sheath gas temp: 350° C.; sheath gas flow: 12 L/min; VCap: 3,000 V; fragmentor: 125 V. Data were acquired from m/z 50-1700 with active reference masses correction (m/z: 121.05087 and 922.00980 (positive mode) or m/z: 119.03632 and 980.01638 (negative mode). Peak identification and integration were done based on in-house exact mass and retention time library built from commercial standards. Data analysis and natural isotope abundance correction were performed using MassHunter Profinder software v10.0 (Agilent Technologies).
For metabolomic profiling of the Mito-IP samples, dried extracts were resuspended in 30 μL of 60:40 acetonitrile:water and an additional 7.5 μL of 100% methanol added to prevent phase separation. Samples were vortexed, incubated on ice for 20 min, and clarified by centrifugation at 20,000 g for 20 min at 4° C. LC-MS analysis was using the iHILIC-(P) Classic negative method described with 6545 Q-TOF mass spectrometer (Agilent Technologies). Whole cell extracts were analyzed in parallel and data analysis was performed using MassHunter Profinder v10.0 software (Agilent Technologies). Metabolite identifications reported were based on either (a) exact mass and retention times matched to authentic standards (denoted as RT in Tables 1A-1G) or (b) exact mass and MS2 spectra match using SIRIUS software (denoted as MS2 in Tables 1A-1G) (https://bio.informatik.uni-jena.de/software/sirius/). Metabolites were considered to be mitochondrial if the average peak area measured in anti-HA Mito-IPs from HA-tagged OMP25 cells was at least 1.5-fold more than in anti-HA Mito-IPs from the control cell expressing Myc-tagged OMP25 (scc Tables 1A-1G; FC>1.5 for [OMP25HA sgCtrl MitoIP vs. OMP25Myc MitoIP]).

For C/C=C(\C)[C@H](O)[C@H](C)/C=C(C)/C=C/C/C(C)=C/Cc1nc(OC)c(OC)c(O)c1C [piericidin], the 2-aminoadipate was 146679 and 129247 and 159230, the 2-hydroxyglutarate was 3675897 and 3670344 and 3586833 and the 3-methyl-2-oxovalerate was 3696272 and 2980891 and 4249362. For the same compound, the 4-acetylbutyrate was 10363291 and 8533694 and 12130178, the 4-hydroxyproline was 522424 and 441928 and 551397 and the “5-methylthioadenosine (MTA)” value was 257749 and 400467 and 367942. The 5-oxoproline was 16393034 and 14068076 and 17132083, the 6-phosphogluconate was 65481 and 57701 and 58966 and the “N6-(delta-isopentenyl)-adenine” value was 293077 and 229998 and 281738. For the same compound, the N-acetyl-beta-alanine was 1022765 and 956905 and 1036571, the N-acetylalanine was 238161 and 214277 and 230562 and the “N-acetylaspartate (NAA)” value was 12095956 and 11050203 and 12351863. The “N-acetylglucosamine 6-phosphate” value was 428986 and 380372 and 454385, the N-acetylglutamate was 987898 and 1549149 and 871723 and the N-acetylglycine was 43846 and 40358 and 41154. The N-acetylmethionine was 462515 and 426811 and 428397, the N-acetylserine was 5896001 and 5058414 and 6358391 and the N-acetyltaurine was 1110210 and 1084752 and 1148548. For the same compound, the N-acetylthreonine was 1380430 and 1226851 and 1295989, the UDP-N-acetylglucosamine was 4639411 and 4238311 and 4998970 and the UDP-glucuronate was 1027925 and 858275 and 1243921. The aconitate was 346582 and 453318 and 406006, the adenine was 481304 and 768689 and 708555 and the “adenosine 5′-diphosphate (ADP)” value was 1129524 and 1189412 and 1083190. For the same compound, the “adenosine 5′-monophosphate (AMP)” value was 646021 and 715531 and 648428, the “adenosine 5′-triphosphate (ATP)” value was 2352445 and 2990040 and 2388618 and the alanine was 1663860 and 1344230 and 1765231. For the same compound, the alanylhistidine was 22199 and 41823 and 30446, the allantoin was 3703951 and 3225148 and 4031072 and the arginine was 1086834 and 998509 and 1348136. The asparagine was 2068551 and 1580346 and 2240202, the aspartate was 1717174 and 1947525 and 1819639 and the beta-glycerophosphoric acid was 850446 and 705915 and 880253. The betaine was 161649 and 112014 and 159770, the caproate was 114886 and 109032 and 115791 and the carbamoyl aspartate was 3763133 and 3469742 and 3815379. The carnitine was 43283 and 41086 and 45131, the citrate was 9028971 and 10970194 and 9594217 and the creatine was 549841 and 451406 and 565679. For the same compound, the creatine phosphate was 394087 and 351223 and 410441, the creatinine was 277361 and 240499 and 323168 and the “cytidine 5′-triphosphate (CTP)” value was 81066 and 75474 and 92586. The “dihydroxyacetone phosphate (DHAP)” value was 1214605 and 1228567 and 1670800, the dodecanoate was 303807 and 282352 and 360172 and the “flavin adenine dinucleotide (FAD)” value was 115513 and 108031 and 137050. The folate was 99228 and 128177 and 134416, the formylpyruvate was 1414077 and 902945 and 1059691 and the “fructose 1,6-biphosphate” value was 1321982 and 1216851 and 1680580. The “fructose 6′-phosphate” value was 57127 and 49316 and 50145, the fumarate was 357661 and 412548 and 377283 and the galactitol was 918739 and 708477 and 1199966. The galactonic acid was 2240293 and 1677985 and 2390572, the “gamma-aminobutyrate (GABA)” value was 3496195 and 3622488 and 3524195 and the glucosamine was 164826 and 119694 and 178113. For the same compound, the “glucose 6′-phosphate” value was 755029 and 621609 and 531377, the glutamate was 126622339 and 129663305 and 129294077 and the glutamine was 58464656 and 69652329 and 62470821. The “glyceraldehyde 3-phosphate” value was 3045295 and 3098709 and 4229751, the “glycerophosphorylcholine (GPC)” value was 210330 and 183098 and 225230 and the glycine was 146868 and 137614 and 144892. The glycylaspartate was 205091 and 201360 and 226481, the “guanosine 5′-diphosphate (GDP)” value was 69660 and 69853 and 38046 and the “guanosine 5′-diphosphoglucose” value was 33192 and 34147 and 38993. For the same compound, the “guanosine 5′-monophosphate (GMP)” value was 44633 and 51573 and 51777, the “guanosine 5′-triphosphate (GTP)” value was 171526 and 214847 and 133658 and the histidine was 15027640 and 12343272 and 17476456. The hydroxyphenyllactate was 1478092 and 1166698 and 1355443, the “inosine 5′-monophosphate (IMP)” value was 22897 and 17939 and 22222 and the isoleucine was 4513788 and 3853543 and 5003963. For the same compound, the lactate was 105521436 and 97172905 and 114401680, the leucine was 7669096 and 6479727 and 8479119 and the lysine was 195097 and 149255 and 233140. The malate was 12653099 and 10480180 and 12542946, the methionine was 1041135 and 894784 and 1078995 and the “methylthioribulose 1-phosphate” value was 21298086 and 18010540 and 22620900. The nicotinamide was 39081 and 33023 and 41574, the “nicotinamide adenine dinucleotide (NAD+)” value was 7875605 and 8688241 and 9053967 and the “nicotinamide adenine dinucleotide phosphate (NADP+)” value was 15380 and 19291 and 12614. For the same compound, the “nicotinamide adenine dinucleotide, reduced (NADH)” value was 455322 and 465048 and 452884, the oleate was 460639 and 248285 and 328228 and the palmitate was 20015231 and 20994808 and 24605738. For the same compound, the pantothenate was 8937050 and 7961239 and 9124782, the pentadecanoic acid was 302982 and 182808 and 229103 and the phenylacetate was 87967 and 87598 and 109383. The phenylacetylglycine was 1781914 and 1641866 and 2033368, the phenylalanine was 6841254 and 5972052 and 7346184 and the phosphocholine was 1734241 and 1590770 and 1746457. For the same compound, the “phosphoenolpyruvate (PEP)” value was 217348 and 206448 and 247608, the proline was 4018244 and 3303744 and 4136919 and the “ribose 5′-phosphate” value was 30487 and 39389 and 44236. For the same compound, the serine was 1972729 and 1697021 and 2115421, the serinylaspartate was 80143 and 82279 and 87822 and the sn-glycero-3-phosphoethanolamine was 3947102 and 4703023 and 3861169. For the same compound, the stearate was 10555350 and 11041062 and 14072247, the succinate was 468012 and 552589 and 622074 and the taurine was 79062900 and 54111662 and 81152564. The threonate was 4663562 and 3938483 and 4644285, the threonine was 13508533 and 12463455 and 14159756 and the “thymidine 5′-diphospho-alpha-D-glucose” value was 14725 and 13909 and 14870. The thymine was 24681 and 21055 and 27340, the tryptophan was 747292 and 595893 and 756562 and the tyrosine was 3847092 and 3576189 and 3918008. For the same compound, the “uridine 5′-diphosphate (UDP)” value was 175584 and 155688 and 210038, the “uridine 5′-monophosphate (UMP)” value was 631970 and 347896 and 460624 and the “uridine 5′-triphosphate (UTP)” value was 3135652 and 2793092 and 3584193. The valine was 1041408 and 903609 and 1081229.
